Reference: patent US20220192192A1, “LOW VOLATILITY HERBICIDAL COMPOSITIONS” (Monsanto Technology LLC, priority 2012, published 2022)

Test: Measurement of dicamba volatility (humidome): dicamba concentration in air by LC-MS
Assay type: physicochemical
Settings: di- and tri-carboxylic acids tested in dicamba compositions
Description: Humidomes obtained from Hummert International (Part Nos 14-3850-2 for humidomes and 11-3050-1 for 1020 flat tray) were modified by cutting a 2.2 cm diameter hole on one end approximately 5 cm from the top to allow for insertion of a glass air sampling tube (22 mm OD) containing a polyurethane foam (PUF) filter. The sampling tube was secured with a VITON o-ring on each side of the humidome wall. The air sampling tube external to the humidome was fitted with tubing that was connected to a vacuum manifold immediately prior to sampling. […] The flat tray bottom containing the dicamba formulation on soil was covered with the humidome lid and the lid was secured with clamps. The assembled humidomes were placed in a temperature and humidity controlled environment and connected to a vacuum manifold through the air sampling line. Air was drawn through the humidome and PUF at a rate of 2 liters per minute (LPM) for 24 hours at which point the air sampling was stopped. The humidomes were then removed from the controlled environment and the PUF filter was removed. The PUF filter was extracted with 20 mL of methanol and the solution was analyzed for dicamba concentration using LC-MS methods known in the art. […] Where glyphosate was added or was part of the formulation, glyphosate was present at a concentration of 2.4% a.e. or 2.0 lb/A a.e. Where 2,4-D was added or was part of the formulation, 2,4-D was present at 2.4% ae or 2.0 lb/A ae at 10 gallons per acre (GPA). The growth chambers were set at 35° C. and 40% relative humidity (RH). For each composition four separate humidome boxes were sprayed to have 4 replicate measurements for each formulation. Tables 3-1 to 3-12 below provide the mean concentration of dicamba in air for the tested formulations.

Row | effect of the acid on dicamba volatility | SMILES
1 | did not reduce dicamba volatility | O=C(O)CC(O)(CC(=O)O)C(=O)O [citric acid]
2 | did not reduce dicamba volatility | O=C(O)CC(O)C(=O)O (stereo not shown) [malic acid]
3 | did not reduce dicamba volatility | O=C(O)C(=O)O [oxalic acid]
4 | did not reduce dicamba volatility | O=C(O)CCC(=O)O [succinic acid]
